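Growth conditions: 96-well plates. Treatment: test compound, 48 hours, 5 concentrations. Analysis: linear interpolation between bracketing concentrations; unreached endpoints set to highest concentration. Abbreviation: GI50, concentration required for 50% inhibition of growth. The concentration for full growth arrest is given as TGI.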
How the values were obtained:
Test in all cases: NCI anticancer screen, dose series, 48 h
HOP-62 NSCLC = system: HOP-62 NSCLC
IGROV1 ovarian = system: IGROV1 ovarian
OVCAR-4 ovarian = system: OVCAR-4 ovarian
EKVX NSCLC = system: EKVX NSCLC
SNB-75 CNS = system: SNB-75 CNS
HCT-116 colon = system: HCT-116 colon
HCT-15 colon = system: HCT-15 colon
SK-MEL-5 melanoma = system: SK-MEL-5 melanoma
HL-60(TB) leukemia = system: HL-60(TB) leukemia
786-0 renal = system: 786-0 renal

SMILES	GI50 (HOP-62 NSCLC)	TGI (HOP-62 NSCLC)	GI50 (IGROV1 ovarian)	TGI (IGROV1 ovarian)	GI50 (OVCAR-4 ovarian)	TGI (OVCAR-4 ovarian)	GI50 (EKVX NSCLC)	TGI (EKVX NSCLC)	GI50 (SNB-75 CNS)	TGI (SNB-75 CNS)	GI50 (HCT-116 colon)	TGI (HCT-116 colon)	GI50 (HCT-15 colon)	TGI (HCT-15 colon)	GI50 (SK-MEL-5 melanoma)	TGI (SK-MEL-5 melanoma)	GI50 (HL-60(TB) leukemia)	TGI (HL-60(TB) leukemia)	GI50 (786-0 renal)	TGI (786-0 renal)
O=C(CSc1nc2ccc([N+](=O)[O-])cc2[nH]1)Nc1ccc(F)c(Cl)c1	2.46 µM	9.89 µM	2.65 µM	14.6 µM	1.99 µM	17.8 µM	1.85 µM	8.85 µM	1.84 µM	7.5 µM	2.42 µM	10.6 µM	2.84 µM	13 µM	1.22 µM	3.03 µM	2.21 µM	6.26 µM	2.84 µM	11.8 µM
CN(C)CC(=O)N1CCC(c2ccc(NC(=O)c3ncc(C#N)[nH]3)c(C3=CCCCC3)c2)CC1	7.07 µM	19.4 µM	7.48 µM	25.7 µM	10.1 µM	23 µM	14.1 µM	28 µM	1.25 µM	9.12 µM	3.97 µM	14.1 µM	2.71 µM	9.22 µM	3.5 µM	13.4 µM	2.99 µM	8.86 µM	3.22 µM	13.1 µM
O=[N+]([O-])[C@@H]1C2C=CC(C2)[C@H]1Cl (some centres undefined)		> 100 µM		> 100 µM		> 100 µM		> 100 µM		> 100 µM		> 100 µM		> 100 µM		> 100 µM		> 100 µM		> 100 µM
O=C(NNc1nc2c(F)cccc2n2cccc12)c1cnccn1	0.365 µM	20 µM	0.328 µM	29.1 µM	0.469 µM	11 µM	0.421 µM	30 µM	1.98 µM	41.6 µM	0.214 µM	23.7 µM	0.178 µM	> 48.2 µM	0.864 µM	4.56 µM	0.409 µM	4.74 µM	0.426 µM	19.3 µM
N#Cc1c(-c2cccs2)c2c(=S)[nH]c(=S)[nH]c2[nH]c1=S	> 100 µM	> 100 µM	71.3 µM	> 100 µM	53 µM	> 100 µM	20 µM	60.8 µM	> 100 µM	> 100 µM	49.5 µM	> 100 µM	37 µM	> 100 µM	17.2 µM	33.9 µM	15.4 µM	47.9 µM	36.4 µM	> 100 µM
N#CC(=C1SCS1)[N+](=O)[O-]	4.9 µM	21.1 µM	3.55 µM	71.1 µM	4.79 µM	19 µM	12.4 µM	31.1 µM	2.44 µM	8.76 µM	0.346 µM	10.3 µM	0.853 µM	9.56 µM	3.25 µM	13.8 µM	0.618 µM	6.36 µM	3.12 µM	14 µM
COc1ccc(C(=S)N2CCN(c3cccc(Cl)c3)CC2)cc1	> 100 µM	> 100 µM	58.8 µM	> 100 µM	> 100 µM	> 100 µM	91.7 µM	> 100 µM	45.1 µM	> 100 µM	> 100 µM	> 100 µM	> 100 µM	> 100 µM	84.2 µM	> 100 µM	> 100 µM	> 100 µM	> 100 µM	> 100 µM
COC1(C(=O)N2Cc3nc(Cl)nc(N[C@H](C)c4cc(N)cc(C(F)(F)F)c4)c3C2)CCOCC1	15.2 µM	36 µM	13.5 µM	43.8 µM	19.8 µM	99.2 µM	14.1 µM	> 100 µM	17.4 µM	62.9 µM	15.2 µM	30.4 µM	23.2 µM	> 76.3 µM	14.8 µM	28.1 µM	22.6 µM	66.4 µM	18.7 µM	68.4 µM
C=CC(=O)N[C@H]1C=C(C)c2c(-c3cnc4ccccc4c3)c3c(N)ncnc3n2C1	20.9 µM	66.7 µM	0.568 µM	12.2 µM	13.5 µM	> 100 µM	0.0785 µM	42.6 µM	3.56 µM	30.5 µM	13.2 µM	34.7 µM	23.1 µM	> 80.3 µM	12.5 µM	25.2 µM	29.8 µM	> 80.4 µM	5.14 µM	36.8 µM
COc1ccc(-c2nn(-c3cccc(Cl)c3)cc2C2CC(c3ccccc3)=NN2C(C)=O)cc1 (centres undefined)	2.62 µM	6.4 µM	13.7 µM	> 100 µM	3.38 µM	29.2 µM	8.75 µM	> 100 µM	1.76 µM	5.99 µM	4.2 µM	> 100 µM	> 100 µM	> 100 µM	30.3 µM	> 100 µM	> 100 µM	> 100 µM	6.87 µM	97.2 µM
C#Cc1cnc(=O)n(C2CC(O)C(CO)O2)c1 (centres undefined)	> 100 µM	> 100 µM	> 100 µM	> 100 µM	> 100 µM	> 100 µM	> 100 µM	> 100 µM	> 100 µM	> 100 µM	> 100 µM	> 100 µM	> 100 µM	> 100 µM	> 100 µM	> 100 µM	> 100 µM	> 100 µM	> 100 µM	> 100 µM
CN1CCN(Cc2ccc(C(=O)Nc3cncc(C#Cc4cnc(N)c5ccccc45)c3)cc2C(F)(F)F)CC1	2.19 µM	4.42 µM	1.87 µM	4.43 µM	1.18 µM	3.05 µM	1.99 µM	6.06 µM	3.42 µM	12.3 µM	1.36 µM	2.7 µM	1.94 µM	4.6 µM	1.73 µM	3.12 µM	1.12 µM	2.99 µM	1.78 µM	3.25 µM
NC(N)=N/N=C(/c1ccccc1)c1ccc(F)cc1	0.85 µM	13.1 µM	0.528 µM	13.5 µM	1.01 µM	37.7 µM	0.65 µM	36.5 µM	0.183 µM	3.09 µM	0.33 µM	4.15 µM	0.4 µM	13.4 µM	0.316 µM	4.66 µM	3.67 µM		0.638 µM	13.9 µM
COc1cc(C(=O)NC2c3ccccc3-c3ccccc32)c(N)cc1OCc1ccccc1	10.6 µM	38.4 µM	34.3 µM	> 100 µM	5.16 µM	32.2 µM	5.28 µM	45 µM	7.84 µM	30.7 µM	20.3 µM	> 82.7 µM	> 74.8 µM	> 100 µM	27.5 µM	> 100 µM	> 71.7 µM	> 100 µM	21.4 µM	> 60.8 µM
N/C(CC(=O)Nc1cc(C(F)(F)F)ccc1Cl)=N\O		> 100 µM		> 100 µM		> 100 µM		> 100 µM		> 100 µM		> 100 µM		> 100 µM		> 100 µM		> 100 µM		> 100 µM
COc1cccc(/C=C/C(=O)c2cc3c(N)c(C(=O)Nc4ccccc4C)sc3nc2C)c1	1.12 µM	2.57 µM	1.03 µM	2.44 µM	2.38 µM	11.2 µM	1.84 µM	10.8 µM	1.05 µM	3.15 µM	0.822 µM	1.5 µM	0.854 µM	1.87 µM	1.44 µM	4.56 µM	1.1 µM	2.63 µM	0.912 µM	1.93 µM
O=C1CCCN(c2ccccc2)N1		> 100 µM		> 100 µM		> 100 µM		> 100 µM		> 100 µM		> 100 µM		> 100 µM		> 100 µM		> 100 µM		> 100 µM
Cc1ccccc1C(C#N)C(=O)C(=O)Nc1nc([N+](=O)[O-])cs1 (centres undefined)		> 100 µM		> 100 µM		> 100 µM		> 100 µM		> 100 µM		> 100 µM		> 100 µM		> 100 µM		> 100 µM		> 100 µM
CC(C)(C)c1cc(O)c(O)c(C(C)(C)C)c1	8.96 µM	29 µM	2.56 µM	5.27 µM	2.31 µM	5.84 µM	3.76 µM	17.5 µM	4.86 µM	19 µM	1.83 µM	3.41 µM	3.38 µM	11.2 µM	4.68 µM	15.8 µM	2.69 µM	6.8 µM	4.6 µM	16.2 µM
C=CCSC[C@H](NC(=O)COc1ccccc1)C(=O)NC(C(=O)OCc1ccc([N+](=O)[O-])cc1)=C(C)C		> 100 µM		> 100 µM		> 100 µM		> 100 µM		> 100 µM		> 100 µM		> 100 µM		> 100 µM		> 100 µM		> 100 µM

Source: PubChem BioAssay (NCI)
